US10125150B2, “Crystalline forms of a PI3K inhibitor” (Incyte Corporation, priority 2015, dated 2018)

Key:
[1] = Dynamic Vapor Sorption (DVS), moisture adsorption/desorption; type: physicochemical; conditions: 25° C.
Method: Dynamic Vapor Sorption (DVS) was performed in an SGA-100 Symmetric Vapor Sorption Analyzer from VTI Corporation. The moisture uptake profile was completed in three cycles in 10% RH increments with the first adsorption from 25% to 95% RH, followed by desorption in 10% increments from 95% to 5% RH. The equilibration criteria were 0.0050 wt % in 5 minutes with a maximum equilibration time of 180 minutes. All adsorption and desorption were performed at room temperature (25° C.). No pre-drying step was applied for the sample.
Moisture adsorption/desorption of Form I was analyzed by DVS. […] The shapes of the isotherms indicate weak adsorbent-adsorbate interaction and a low moisture uptake at low vapor concentration.

[2] = Competitive slurry experiments (stability of the crystalline forms), solid characterized by XRPD; type: physicochemical; conditions: 50° C.
Method: Forms I and X of the compound of Formula I were slurried together in a methanol-ethyl acetate (1:10) solvent system and heated at 50° C. for 5 days. Specifically, 5 mL of ethyl acetate and 0.5 mL of methanol were combined and heated to 50° C. Form I (from Example 1) was added to the solvent mixture until a cloudy solution formed (about 156 mg), and then additional Form I was added (about 50 mg). Then 50 mg of Form X (prepared as described in Example 12) was added. The mixture was stirred at 50° C. for 5 days and the solid was characterized and monitored by XRPD.
Forms I to XIII of the compound of Formula I were slurried together in a methanol-ethyl acetate (1:10) solvent system at room temperature for 8 days. Specifically, 10 mg of Form I (from Example 1) was added to 1 mL of ethyl acetate with stirring. Then 0.1 mL of methanol was added giving a cloudy solution to which 3 mg of additional Form I (from Example 1) was added. […]
Forms I and X of the compound of Formula I were slurried together in acetone and heated at 50° C. overnight. […] The mixture was stirred at 50° C. overnight and the solid was characterized and monitored by XRPD.
Forms I to XIII of the compound of Formula I were slurried together in acetone at room temperature for 11 days. […] The mixture was stirred at room temperature for 11 days and the resulting solid was characterized and monitored by XRPD.

Q: Which results are given for `Cc1csc2nc([C@H](C)Nc3ncnc4[nH]cnc34)c(-c3cccc(F)c3)c(=O)n12` [Form I, (S)-7-(1-(9H-purin-6-ylamino)ethyl)-6-(3-fluorophenyl)-3-methyl-5H-thiazolo[3,2-a]pyrimidin-5-one]?
A: initial water content (DVS) ([1]; no pre-drying): about 0.3%; water adsorption (DVS) ([1]; at 85% RH): 1.8%; resulting crystalline form ([2]; Forms I and X slurried in acetone, overnight): predominantly Form X; resulting crystalline form ([2]; Forms I and X slurried in methanol-ethyl acetate (1:10), 5 days): predominantly Form I
